US20220267394A1, “COMPOUNDS FOR INDUCING TISSUE FORMATION AND USES THEREOF” (HISTIDE AG, priority 2015, published 2022)

Tests used:
Format in all cases: cell-based
[1] = system: Neurons (Neuronal Schwann Cells); experiment: Neuron growth on titanium (dendrite growth, GAP43 Q-PCR); details: titanium covalently modified with peptide
Source text: […]

[2] = system: Human umbilical-vein endothelial cells; experiment: Angiogenesis: tube-like structure formation on PET; details: PET covalently modified with peptide, 18 hours
Description: (§1) The polymer used in this study is poly(ethylene terephthalate) (PET). The polymers were first treated in order to create —COOH (carboxyl) functions on the PET surfaces from —OH (hydroxyl) functions. Next, the PET-COOH samples were immersed in a solution of dimethylaminopropyl-3-ethylcarbodiimide hydrochloride (EDC, 0.2 M)+N-hydroxysuccinimide (NHS, 0.1 M) in 2-(N-morpholino)-ethanesulfonic acid (MES) buffer (0.1 M in MilliQ water) and the samples were rinsed in MilliQ water (50 mL for 30 min). The same protocol was used for all the polymers containing —OH (hydroxyl) functions on their extreme surface. Finally, the covalent immobilization of the peptides was achieved by using a solution of peptides/1×PBS (C=10^−3 M) incubated for 18 hours at room temperature. After grafting, the materials were rinsed in MilliQ water (100 ml) for 1 week.

[3] = system: Human Mesenchymal Stem Cells (hMSCs); experiment: Osteogenic differentiation of human mesenchymal stem cells (Runx2/Osterix immunostaining, ALP activity); details: type-I collagen sponge coupled with peptide, 1 week of culture
[4] = system: Human umbilical-vein endothelial cells; experiment: Endothelialization: adherent junctions (CD31) of endothelial cells on PET; details: PET covalently modified with peptide vs native PET, 36 hours
Description: as §1
An increase in the area of the adherent junctions (CD31) was observed after 36 hours of culture on the covalently modified PET (FIG. 13).

[5] = system: mouse mesenchymal pre-osteoblastic cells (MC3T3-E1); experiment: Osteogenic differentiation of osteoblast progenitors (optical profilometry of extracellular matrix, Runx2 Q-PCR, Osteopontin immunostaining); details: apatite ceramics or type-I collagen sponge coupled with peptide vs native type-I collagen sponge, 48 hours
Description: The surface profiler system is a non-contact optical profiler that measures a wide range of surface heights. The vertical scanning interferometry mode allows for the measurement of rough surfaces and steps of up to several micrometers. This mode was used in order to measure the thickness of the extracellular matrix produced by the cells. First, after 24 h of culture, the cells were fixed with paraformaldehyde in PBS (4%) for 30 minutes at 4° C. and the samples were dehydrated in increasing concentrations of ethanol (30, 70, 80, 90, 95 and 100%) and critical-point dried. To evaluate the extent of the newly synthesized extracellular matrix, a spatula was used to scratch the surface of the materials. The samples were then metallized for 10 sec with gold or titanium before being analyzed.
The cells were first fixed for 20 min with 4% paraformaldehyde/PBS at 4° C. […]
Total RNA was extracted by using the RNeasy total RNA kit (Qiagen®) according to the manufacturer's instructions. […] Data were analyzed with the iCycler IQ™® software and compared by the ΔΔCt method. […]
The effect of the GFR-binding compounds as described herein (SEQ ID NO: 33) on the differentiation of osteoblast progenitors was evaluated. […]
An increase in the Runx2 gene expression after 24 hours of culture (FIG. 11) was observed by using Quantitative Real Time Polymerase Chain Reaction as described in the Methods section.

CTVPKPSSAPTQLSPISILYIDAANNVVYKQYEDMVVRA (CTVPKPXXAPTQLSPISILYIDAANNVVYKQYEDMVVRA; GFR-binding peptide; MOD_RES (7), (8): Xaa is C or S) [SEQ ID NO: 49]
establishment of cell-cell contacts via dendrite growth ([1]; 6 hours): rapid establishment | Growth Associated Protein 43 (GAP43) gene expression (Q-PCR) ([1]; 48 hours): high level of expression

CVPTEESNITMQIMRIKPHQGQHIGEMSFL (GFR-binding peptide) [SEQ ID NO: 39]
formation of tube-like structures [2]: formation of tube-like structures was observed

WWFWGKASSVPTELSPISTLYKDENEKVVLKYHYDMVVEGSGSR (WWFWGKASSVPTELSPISTLYKDENEKVVLKYHYDMVVEGXGXR; GFR-binding peptide; MOD_RES (41), (43): Xaa is C or S) [SEQ ID NO: 32]
ALP (Alkaline Phosphatase) activity [3]: increase

CVPTEERSVKVAKVRIKPHQGQHKEVQV (GFR-binding peptide) [SEQ ID NO: 38]
area of the adherent junctions (CD31) [4]: increase

WWFWGASSAVSQELSAISMLYLGGGLKNYQDMQHN (GFR-binding peptide) [SEQ ID NO: 33]
production of extracellular matrix proteins such as Osteopontin (OPN) [5]: extensive amounts
